We go through 16 molecules from ChEMBL document CHEMBL1132164, “Nonpeptidic HIV protease inhibitors: 6-alkyl-5,6-dihydropyran-2-ones possessing achiral 3-(4-amino/carboxamide-2-t-butyl,5-methylphenyl thio) moiety: antiviral activities and pharmacokinetic properties” (Bioorg Med Chem Lett, 1999).

Series [1] concerns the target T1, Human immunodeficiency virus type 1 protease (Human immunodeficiency virus 1, UniProt Q72874). Briefly: In vitro binding affinity against HIV protease at pH 6.2.
In another series the test system is HIV protease. Briefly: (§1) Therapeutic index for HIV protease was determined. As to conditions: read-out: Therapeutic index.
In series [2] the test system is Human immunodeficiency virus 1. The experiment in a line: (§2) Tested for antiviral activity against HIV-III B strain infected human lymphocyte derived CEM cells. In kind it is functional, organism-based, CCRF-CEM.
Series [3] deals with CCRF-CEM. Briefly: Tested for the cytotoxic effect in uninfected human lymphocyte derived CEM cells. Conditions: read-out: TC50 (the source's name). In kind it is functional.
The nature of series [4]: Therapeutic index was determined. As to conditions: read-out: TI.
Series [5] can be described thus: Half life in dog plasma was determined at dose 10 mg/kg. In kind it is ADME, organism-based, Canis lupus familiaris. Details: dose 10 mg/kg.
Series [6] in a line: Area under the curve for the compound was obtained when tested in dog. In kind it is ADME, organism-based, Canis lupus familiaris. Conditions: in vivo.
Series [7] can be described thus: as §1.
Series [8] is described as follows: Bioavailability was obtained by the comparison of AUC of subcutaneous dosing and AUC of oral dosing in mouse. In kind it is ADME, organism-based. Conditions: in vivo, read-out: Bioavailabiility.
The nature of series [9]: Maximum concentration obtained in dog plasma was determined. In kind it is ADME, organism-based, Canis lupus familiaris.
A short description of series [10]: Maximum concentration obtained in mouse plasma was determined. In kind it is ADME, organism-based.
Series [11] concerns CCRF-CEM. The description is as §2. In kind it is functional.
Series [12] addresses T1, Human immunodeficiency virus type 1 protease. Briefly: Binding affinity towards HIV protease was determined.
Series [13] is described as follows: Half life in mouse plasma was determined at dose 25 mg/kg. In kind it is ADME, organism-based. Details: dose 25 mg/kg.
The next series is filed under the species Mus musculus. Briefly: Time taken for EC90 was determined when tested in mouse. In kind it is ADME, organism-based. As to conditions: in vivo.
Series [14] in a line: Bioavailability was obtained by the comparison of AUC of intravenous dosing and AUC of oral dosing in dog. In kind it is ADME, organism-based, Canis lupus familiaris. As to conditions: in vivo, read-out: Bioavailabiility.
For another series, the species on record is Canis familiaris. The experiment in a line: Time taken for EC90 was determined when tested in dog. Conditions: in vivo. In kind it is ADME, organism-based, Canis lupus familiaris.
The nature of series [15]: Area under the curve for the compound was obtained when tested in mouse. In kind it is ADME, organism-based. As to conditions: in vivo.
Series [16] deals with T1, Human immunodeficiency virus type 1 protease. Briefly: In vitro binding affinity against HIV protease at pH 6.2 was determined.
Where [17] appears, read: Human immunodeficiency virus 1, CCRF-CEM.

In the case of `Cc1cc(SC2=C(O)OC(CCc3ccc(O)cc3)(C(C)C)CC2=O)c(C(C)(C)C)cc1NC(=O)OC(C)(C)C` (configuration not stated), the IC50 (in general, the midpoint of a concentration-inhibition curve) in series [1] came out at 0.091 µM.
In the case of `Cc1cc(SC2=C(O)OC(CCc3ccc(O)cc3)(C3CCCC3)CC2=O)c(C(C)(C)C)cc1N` (configuration not stated), the selectivity ratio with HIV protease came out at 22. In addition, the response in series [2] (setting [17]) was half-maximal at 3.8 µM (EC50). In the series on CCRF-CEM [3], the CC50 stood at 82 µM. For the same molecule, in series [1], the IC50 was 0.006 µM.
In the case of `Cc1cc(SC2=C(O)O[C@](CCc3ccc(N)cc3)(C(C)C)CC2=O)c(C(C)(C)C)cc1CO`, in series [4], the selectivity ratio came out at 1050.
`Cc1cc(SC2=C(O)OC(CCc3ccc(O)cc3)(C(C)C)CC2=O)c(C(C)(C)C)cc1NC(=O)c1cccc(C#N)c1` (configuration not stated): the selectivity ratio in the series with HIV protease stood at 5. Also, the midpoint of the response in series [2] (setting [17]), the EC50, lay at 14 µM. For the same molecule, the CC50 with CCRF-CEM [3] worked out at 66 µM. Moreover, the IC50 in [1] came to 0.015 µM.
As to `CCCCC1(CCc2ccc(O)cc2)CC(=O)C(Sc2cc(C)c(N)cc2C(C)(C)C)=C(O)O1` (configuration not stated), in the series on HIV protease, the selectivity ratio was determined as 7. The EC50 (in general, the concentration at which the effect is half-maximal) in [2] (setting [17]) is 3.7 µM. Moreover, the CC50 with CCRF-CEM [3] is 25 µM. For the same molecule, the IC50 in series [1] was 0.0044 µM.
`Cc1cc(SC2=C(O)OC(CCc3ccccc3)(C(C)C)CC2=O)c(C(C)(C)C)cc1N` (configuration not stated): the selectivity ratio in the series on HIV protease is 36. This molecule came in with an EC50 in series [2] (setting [17]) of 1.9 µM. Besides, the CC50 in the series with CCRF-CEM [3] was 69 µM. The molecule further showed an IC50 in series [1] of 0.0033 µM.
Take `Cc1cc(SC2=C(O)O[C@](CCc3ccc(O)cc3)(C(C)C)CC2=O)c(C(C)(C)C)cc1N` (stereo in doubt; 15S): the figures for the half-life in series [5] and in series [13] were 1.7 h and 1.2 h, respectively. Also, the AUC – broadly, the area under the concentration-time curve, a measure of exposure – in series [6] came out at 138 µM·h; in [15] it was 30 µM·h. For the same molecule, the Therapeutic index in series [7] stood at 422. Further, the midpoint of the response in series [2] (ccrf-cem), the EC50, lay at 0.5 µM. Also, the results for the bioavailability in series [8] and in series [14] were 100% and 56%, respectively. The highest concentration (Cmax) (in general, the highest concentration seen after dosing) in series [9] came to 71 µM; in [10] it was 21.7 µM. Further, in the series on CCRF-CEM [3], the CC50 was determined as 211 µM. Besides, in the series on CCRF-CEM [11], the EC90 (usually the concentration needed for an effect of 90%) is 1 µM. For the same molecule, the Ki (usually the dissociation constant of the complex between target and ligand, obtained from inhibition or displacement) in series [12] was determined as 70 pM. In addition, the “Hours above EC90” value in the series listed under Mus musculus was determined as 4; in the series listed under Canis familiaris, 8.5.
On to `Cc1cc(SC2=C(O)O[C@](CCc3ccc(O)cc3)(C(C)C)CC2=O)c(C(C)(C)C)cc1CO`, for which, in series [4], the selectivity ratio was above 200. The molecule also showed an EC50 in series [2] (setting [17]) of 0.46 µM. In series [16], this molecule came in with a Ki of 90 pM.
Take `Cc1cc(SC2=C(O)OC(CCc3ccc(O)cc3)(C(C)C)CC2=O)c(C(C)(C)C)cc1NC(=O)c1cccnc1` (configuration not stated): the selectivity ratio in the series on HIV protease is above 20. Further, the EC50 in series [2] (setting [17]) is 4.9 µM. Also, the CC50 in the series on CCRF-CEM [3] was above 100 µM. Besides, in [1], the IC50 was 0.0051 µM.
In the same order, the values of `Cc1cc(SC2=C(O)OC(CCc3ccc(O)cc3)(C3CCCCC3)CC2=O)c(C(C)(C)C)cc1N` (configuration not stated) are 7, 10 µM, 66 µM and 0.02 µM.
With `Cc1cc(SC2=C(O)OC(CCc3ccc(O)cc3)(C(C)C)CC2=O)c(C(C)(C)C)cc1NC(=O)CC(C)(C)C` (configuration not stated), the selectivity ratio with HIV protease is 4. For the same molecule, the EC50 in [2] (setting [17]) came out at 16 µM. The CC50 in the series with CCRF-CEM [3] turned out to be 67 µM. For the same molecule, the IC50 in series [1] stood at 0.06 µM.
Regarding `Cc1cc(SC2=C(O)OC(CCc3ccccc3)(c3ccccc3)CC2=O)c(C(C)(C)C)cc1N` (configuration not stated), the selectivity ratio with HIV protease was below 1. In addition, the EC50 in [2] (setting [17]) is above 64 µM. Besides, in the series with CCRF-CEM [3], the CC50 is 64 µM. Further, in [1], the IC50 was 0.011 µM.
In the same order, the values of `Cc1cc(SC2=C(O)OC(CCc3ccc(O)cc3)(C(C)C)CC2=O)c(C(C)(C)C)cc1NC(=O)c1ccccc1` (configuration not stated) are 12, 5.4 µM, 66 µM and 0.0132 µM.
Turning to `Cc1cc(SC2=C(O)OC(C)(CCc3ccc(O)cc3)CC2=O)c(C(C)(C)C)cc1N` (configuration not stated), the selectivity ratio in the series with HIV protease is 7. The molecule also yielded an EC50 in [2] (setting [17]) of 9.4 µM. The CC50 in the series on CCRF-CEM [3] was 66 µM. In series [1], the half-inhibitory concentration (IC50) was found to be 0.0096 µM.
Regarding `Cc1cc(SC2=C(O)OC(C)(CCc3ccc(O)cc3)CC2=O)c(C(C)(C)C)cc1O` (configuration not stated), the selectivity ratio in the series with HIV protease was below 1. The EC50 in series [2] (setting [17]) is above 7 µM. In addition, the CC50 in the series on CCRF-CEM [3] was determined as 7 µM.
Turning to `Cc1cc(SC2=C(O)OC(CCc3ccc(O)cc3)(C(C)C)CC2=O)c(C(C)(C)C)cc1NC(=O)c1ccc(C(F)(F)F)cc1` (configuration not stated), the selectivity ratio in the series on HIV protease turned out to be 5. The same molecule had a 50% effective concentration (EC50) in series [2] (setting [17]) of 5 µM. Moreover, the CC50 with CCRF-CEM [3] stood at 27 µM. Further, the IC50 in [1] was determined as 0.0121 µM.
